Source: patent US20170334899A1, “AMINO-SUBSTITUTED ISOTHIAZOLES” (Bayer Pharma Aktiengesellschaft, priority 2014, published 2017)

What was measured:
[1] = molecular target: T1, catalytic domain of human Bub1 (amino acids 704-1085) (Homo sapiens, UniProt O43683); assay: Bub1 kinase assay (TR-FRET); format: biochemical; conditions: 10 μM ATP, avg, read-out: Bub1 avg (IC50 [mol/l])
T1 construct: catalytic domain of human Bub1 (amino acids 704-1085); His6 (N); made in house; host or cells: insect cells (Hi5)
T1 sequence (O43683 704-1085): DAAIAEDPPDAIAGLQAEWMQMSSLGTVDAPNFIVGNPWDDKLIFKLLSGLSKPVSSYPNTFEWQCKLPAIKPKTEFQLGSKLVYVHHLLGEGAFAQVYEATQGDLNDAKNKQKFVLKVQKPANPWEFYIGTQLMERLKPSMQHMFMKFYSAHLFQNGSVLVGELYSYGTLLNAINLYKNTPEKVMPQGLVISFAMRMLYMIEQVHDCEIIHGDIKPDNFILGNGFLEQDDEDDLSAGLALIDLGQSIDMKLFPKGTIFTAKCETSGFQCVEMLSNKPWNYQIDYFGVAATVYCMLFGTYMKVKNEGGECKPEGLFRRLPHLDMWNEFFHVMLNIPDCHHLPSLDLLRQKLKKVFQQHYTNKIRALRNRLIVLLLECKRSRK
Description: Bub1-inhibitory activity of compounds of the present invention was quantified employing the Bub1 TR-FRET assay as described in the following paragraphs.
N-terminally His6-tagged recombinant catalytic domain of human Bub1 (amino acids 704-1085), expressed in insect cells (Hi5) and purified by Ni-NTA affinity chromatography and subsequent size exclusion chromatography, was used as enzyme. As substrate for the kinase reaction the biotinylated peptide biotin-Ahx-VLLPKKSFAEPG (C-terminus in amid form) was used which can be purchased e.g. form the company Biosyntan (Berlin, Germany).
For the assay 50 nl of a 100fold concentrated solution of the test compound in DMSO was pipetted into a black low volume 384well microtiter plate (Greiner Bio-One, Frickenhausen, Germany), 2 μl of a solution of Bub1 in aqueous assay buffer [50 mM Tris/HCl pH 7.5, 10 mM magnesium chloride (MgCl2), 200 mM potassium chloride (KCl), 1.0 mM dithiothreitol (DTT), 0.1 mM sodium ortho-vanadate, 1% (v/v) glycerol, 0.01% (w/v) bovine serum albumine (BSA), 0.005% (v/v) Trition X-100 (Sigma), 1× Complete EDTA-free protease inhibitor mixture (Roche)] were added and the mixture was incubated for 15 min at 22° C. to allow pre-binding of the test compounds to the enzyme before the start of the kinase reaction. Then the kinase reaction was started by the addition of 3 μl of a solution of adenosine-tri-phosphate (ATP, 16.7 μM=>final conc. in the 5 μl assay volume is 10 μM) and substrate (1.67 μM=>final conc. in the 5 μl assay volume is 1 μM) in assay buffer and the resulting mixture was incubated for a reaction time of 60 min at 22° C. The concentration of Bub1 was adjusted depending of the activity of the enzyme lot and was chosen appropriate to have the assay in the linear range, typical concentrations were in the range of 200 ng/ml. The reaction was stopped by the addition of 5 μl of a solution of TR-FRET detection reagents (0.2 μM streptavidine-XL665 [Cisbio Bioassays, Codolet, France] and 1 nM anti-phosho-Serine antibody [Merck Millipore, cat. #35-001] and 0.4 nM LANCE EU-W1024 labeled anti-mouse IgG antibody [Perkin-Elmer, product no. AD0077, as an alternative a Terbium-cryptate-labeled anti-mouse IgG antibody from Cisbio Bioassays can be used]) in an aqueous EDTA-solution (50 mM EDTA, 0.2% (w/v) bovine serum albumin in 100 mM HEPES pH 7.5).
The resulting mixture was incubated 1 h at 22° C. to allow the formation of complex between the phosphorylated biotinylated peptide and the detection reagents. Subsequently the amount of phosphorylated substrate was evaluated by measurement of the resonance energy transfer from the Eu-chelate to the streptavidine-XL. Therefore, the fluorescence emissions at 620 nm and 665 nm after excitation at 350 nm was measured in a TR-FRET reader, e.g. a Rubystar or Pherastar (both from BMG Labtechnologies, Offenburg, Germany) or a Viewlux (Perkin-Elmer). The ratio of the emissions at 665 nm and at […] was taken as the measure for the amount of phosphorylated substrate. The data were normalised (enzyme reaction without inhibitor=0% inhibition, all other assay components but no enzyme=100% inhibition).

HeLa = assay: Proliferation assay (crystal violet), HeLa; format: cell-based; conditions: Homo sapiens, HeLa, 96 h, HeLa cells; 4 days incubation; crystal violet staining; read-out: IC50 inhibition of proliferation, HeLa
Procedure, shortened: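 Absorbance at 595 nm of crystal-violet-stained cells after 4 days' exposure to 0.001–10 μM compound (0.5% DMSO). Values normalized to a day-0 plate (0%) and untreated cells (100%); IC50 by 4-parameter fit.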

Row | Structure (SMILES) | IC50 [1] [µM] | IC50 (HeLa) [µM]
1 | Cc1nsc(Nc2cncc(C(F)(F)F)n2)c1C(=O)Nc1ccc(OCC2CCN(C(=O)OC(C)(C)C)C2)nc1 (stereo not shown) [Example 110, tert-Butyl 3-{[(5-{[(3-methyl-5-{[6-(trifluoromethyl)pyrazin-2-yl]amino}-1,2-thiazol-4-yl)carbonyl]amino}pyridin-2-yl)oxy]methyl}pyrrolidine-1-carboxylate] | ≥ 20 | 0.85
2 | CNS(=O)(=O)c1ccc(NC(=O)c2c(C)nsc2Nc2cnc3ccccc3n2)cc1 [Example 111, 3-Methyl-N-[4-(methylsulfannoyl)phenyl]-5-(quinoxalin-2-ylamino)-1,2-thiazole-4-carboxamide] | ≥ 20 | 4.4
3 | CC(=O)N(C)CCOc1ccc(NC(=O)c2c(C)nsc2Nc2nc3c(C(F)(F)F)cccc3s2)cn1 [Example 112, N-(6-{2-[Acetyl(methyl)amino]-ethoxy}pyridin-3-yl)-3-methyl-5-{[4-(trifluoromethyl)-1,3-benzothiazol-2-yl]amino}-1,2-thiazole-4-carboxamide] | ≥ 20 | 8.8
4 | Cc1nsc(Nc2cnc3ccccc3n2)c1C(=O)Nc1cccc(C(=O)N2CCCC2)c1 [Example 113, 3-Methyl-N-[3-(pyrrolidin-1-ylcarbonyl)phenyl]-5-(quinoxalin-2-ylamino)-1,2-thiazole-4-carboxamide] | 18 | 10
5 | Cc1nsc(Nc2cc(C#N)ccn2)c1C(=O)Nc1cccc(C(=O)N2CCCC2)c1 [Example 114, 5-[(4-Cyanopyridin-2-yl)amino]-3-methyl-N-[3-(pyrrolidin-1-ylcarbonyl)phenyl]-1,2-thiazole-4-carboxamide] | ≥ 20 | 10
6 | Cc1nsc(Nc2cnc3ccccc3n2)c1C(=O)Nc1ccc(S(C)(=O)=O)cc1 [Example 115, 3-Methyl-N-[4-(methylsulfonyl)phenyl]-5-(quinoxalin-2-ylamino)-1,2-thiazole-4-carboxamide] | 8.9 | 4.4
7 | CCNS(=O)(=O)c1ccc(NC(=O)c2c(C)nsc2Nc2cnc3ccccc3n2)cc1 [Example 116, N-[4-(Ethylsulfamoyl)phenyl]-3-methyl-5-(quinoxalin-2-ylamino)-1,2-thiazole-4-carboxamide] | ≥ 20 | 3
8 | Cc1nsc(Nc2cnc3ccccc3n2)c1C(=O)Nc1ccc(Oc2cccc(C(F)(F)F)c2)nc1 [Example 117, 3-Methyl-5-(quinoxalin-2-ylamino)-N-{6-[3-(trifluoromethyl)phenoxy]pyridin-3-yl}-1,2-thiazole-4-carboxamide] | ≥ 20 | 0.88
9 | Cc1nsc(Nc2ccc(C#N)cn2)c1C(=O)Nc1ccc(Oc2cccc(C(F)(F)F)c2)nc1 [Example 118, 5-[(5-Cyanopyridin-2-yl)amino]-3-methyl-N-{6-[3-(trifluoromethyl)phenoxy]pyridin-3-yl}-1,2-thiazole-4-carboxamide] | ≥ 20 | 0.6
10 | Cc1nsc(Nc2cc(C#N)ccn2)c1C(=O)Nc1ccc(Oc2cccnc2)nc1 [Example 119, 5-[(4-Cyanopyridin-2-yl)amino]-3-methyl-N-[6-(pyridin-3-yloxy)pyridin-3-yl]-1,2-thiazole-4-carboxamide] | ≥ 20 | 5.3

More lines, now with the values ahead:

Row | IC50 [1] [µM] | IC50 (HeLa) [µM] | Structure (SMILES)
11 | ≥ 20 | 0.82 | Cc1nsc(Nc2cnc(C(F)(F)F)cn2)c1C(=O)Nc1ccc(OCC2CCN(CCF)C2)nc1 (stereo not shown) [Example 121, N-(6-{[1-(2-fluoroethyl)pyrrolidin-3-yl]methoxy}pyridin-3-yl)-3-methyl-5-{[5-(trifluoromethyl)pyrazin-2-yl]amino}-1,2-thiazole-4-carboxamide]
12 | ≥ 20 | 0.28 | Cc1nsc(Nc2cnc(C(F)(F)F)cn2)c1C(=O)Nc1ccc(OCC2CCN(CC(F)F)C2)nc1 (stereo not shown) [Example 122, N-(6-{[1-(2,2-difluoroethyl)pyrrolidin-3-yl]methoxy}pyridin-3-yl)-3-methyl-5-{[5-(trifluoromethyl)pyrazin-2-yl]amino}-1,2-thiazole-4-carboxamide]
13 | ≥ 20 | 0.13 | Cc1nsc(Nc2cnc(C(F)(F)F)cn2)c1C(=O)Nc1ccc(OCC2CCN(CC(F)(F)F)C2)nc1 (stereo not shown) [Example 123, 3-Methyl-N-(6-{[1-(2,2,2-trifluoroethyl)pyrrolidin-3-yl]methoxy}pyridin-3-yl)-5-{[5-(trifluoromethyl)pyrazin-2-yl]amino}-1,2-thiazole-4-carboxamide]
14 | ≥ 20 | 0.36 | Cc1nsc(Nc2cnc(C(F)(F)F)cn2)c1C(=O)Nc1ccc(OCC2CCN(CCC(F)(F)F)C2)nc1 (stereo not shown) [Example 124, 3-methyl-5-{[5-(trifluoromethyl)pyrazin-2-yl]amino}-N-(6-{[1-(3,3,3-trifluoropropyl)pyrrolidin-3-yl]methoxy}pyridin-3-yl)-1,2-thiazole-4-carboxamide]
15 | ≥ 20 | 0.46 | Cc1nsc(Nc2cnc(C(F)(F)F)cn2)c1C(=O)Nc1ccc(OC[C@@H]2CCN(CC(F)F)C2)nc1 [Example 127, N-(6-{[(3R)-1-(2,2-difluoroethyl)pyrrolidin-3-yl]methoxy}pyridin-3-yl)-3-methyl-5-{[5-(trifluoromethyl)pyrazin-2-yl]amino}-1,2-thiazole-4-carboxamide]
16 | > 20 | 0.23 | Cc1nsc(Nc2cnc(C(F)(F)F)cn2)c1C(=O)Nc1ccc(OC[C@@H]2CCN(CC(F)(F)F)C2)nc1 [Example 128, 3-Methyl-N-(6-{[(3R)-1-(2,2,2-trifluoroethyl)pyrrolidin-3-yl]methoxy}pyridin-3-yl)-5-{[5-(trifluoromethyl)pyrazin-2-yl]amino}-1,2-thiazole-4-carboxamide]
17 | > 20 | 0.25 | Cc1nsc(Nc2cnc(C(F)(F)F)cn2)c1C(=O)Nc1ccc(OC[C@@H]2CCN(CCC(F)(F)F)C2)nc1 [Example 129, 3-Methyl-5-{[5-(trifluoromethyl)pyrazin-2-yl]amino}-N-(6-{[(3R)-1-(3,3,3-trifluoropropyl)pyrrolidin-3-yl]methoxy}pyridin-3-yl)-1,2-thiazole-4-carboxamide]
18 | > 20 | 0.45 | Cc1nsc(Nc2cnc(C(F)(F)F)cn2)c1C(=O)Nc1ccc(OC[C@H]2CCN(CC(F)F)C2)nc1 [Example 132, N-(6-{[(3S)-1-(2,2-difluoroethyl)pyrrolidin-3-yl]methoxy}pyridin-3-yl)-3-methyl-5-{[5-(trifluoromethyl)pyrazin-2-yl]amino}-1,2-thiazole-4-carboxamide]
19 | > 20 | 0.45 | Cc1nsc(Nc2cnc(C(F)(F)F)cn2)c1C(=O)Nc1ccc(OC[C@H]2CCN(CCC(F)(F)F)C2)nc1 [Example 134, 3-Methyl-5-{[5-(trifluoromethyl)pyrazin-2-yl]amino}-N-(6-{[(3S)-1-(3,3,3-trifluoropropyl)pyrrolidin-3-yl]methoxy}pyridin-3-yl)-1,2-thiazole-4-carboxamide]
20 | > 20 | 0.18 | Cc1nsc(Nc2cnc(C(F)(F)F)cn2)c1C(=O)Nc1ccc(O[C@@H]2CCN(CC(F)F)C[C@@H]2F)nc1 [Example 137, N-(6-{[(3S,4R)-1-(2,2-difluoroethyl)-3-fluoropiperidin-4-yl]oxy}pyridin-3-yl)-3-methyl-5-{[5-(trifluoromethyl)pyrazin-2-yl]amino}-1,2-thiazole-4-carboxamide]
